Measured values: ChEMBL document CHEMBL5325486, “Synthesis of novobiocin derivatives and evaluation of their antigonococcal activity and pharmacokinetics” (Bioorg Med Chem, 2023)
≈ marks a conversion by molar mass, not a printed value.

Key:
Neisseria gonorrhoeae = assay: Antibacterial activity against resistant Neisseria gonorrhoeae assessed inhibition of bacterial growth; type: functional
Staphylococcus aureus = assay: Antibacterial activity against Staphylococcus aureus assessed inhibition of bacterial growth; type: functional

| SMILES | MIC50 (Neisseria gonorrhoeae) | MIC90 (Neisseria gonorrhoeae) | MIC50 (Staphylococcus aureus) | MIC90 (Staphylococcus aureus) |
| --- | --- | --- | --- | --- |
| CO[C@@H]1[C@@H](OC(=O)c2ccc(C)[nH]2)[C@@H](O)[C@H](Oc2ccc3c(O)c(NC(=O)c4ccccc4)c(=O)oc3c2C)OC1(C)C | 1 µg/mL (≈ 1.69 µM) | 1 µg/mL (≈ 1.69 µM) | 0.063 µg/mL (≈ 0.106 µM) | 0.125 µg/mL (≈ 0.211 µM) |
| CO[C@@H]1[C@@H](OC(=O)NOC(C)(C)C)[C@@H](O)[C@H](Oc2ccc3c(O)c(NC(=O)c4ccc(O)c(CC=C(C)C)c4)c(=O)oc3c2C)OC1(C)C | 16 µg/mL (≈ 23.4 µM) | 64 µg/mL (≈ 93.5 µM) | 1 µg/mL (≈ 1.46 µM) | 1 µg/mL (≈ 1.46 µM) |
| CO[C@@H]1[C@@H](OC(=O)c2ccc(C)[nH]2)[C@@H](O)[C@H](Oc2ccc3c(O)c(NC(=O)c4cccc(N5CCN(C)CC5)c4)c(=O)oc3c2C)OC1(C)C | 1 µg/mL (≈ 1.45 µM) | 1 µg/mL (≈ 1.45 µM) | 0.5 µg/mL (≈ 0.724 µM) | 0.5 µg/mL (≈ 0.724 µM) |
| C=CCONC(=O)O[C@H]1[C@@H](O)[C@H](Oc2ccc3c(O)c(NC(=O)c4ccc(O)c(CC=C(C)C)c4)c(=O)oc3c2C)OC(C)(C)[C@@H]1OC | 1 µg/mL (≈ 1.5 µM) | 2 µg/mL (≈ 2.99 µM) | 0.125 µg/mL (≈ 0.187 µM) | 0.25 µg/mL (≈ 0.374 µM) |
| CO[C@@H]1[C@@H](OC(=O)c2cc(Cl)c(C)[nH]2)[C@@H](O)[C@H](Oc2ccc3c(O)c(NC(=O)c4ccc(O)c(CC=C(C)C)c4)c(=O)oc3c2C)OC1(C)C | 0.5 µg/mL (≈ 0.703 µM) | 1 µg/mL (≈ 1.41 µM) | 0.063 µg/mL (≈ 0.0886 µM) | 0.125 µg/mL (≈ 0.176 µM) |
| CO[C@@H]1[C@@H](OC(=O)c2ccc[nH]2)[C@@H](O)[C@H](Oc2ccc3c(O)c(NC(=O)c4ccc(O)c(CC=C(C)C)c4)c(=O)oc3c2C)OC1(C)C | 0.5 µg/mL (≈ 0.754 µM) | 1 µg/mL (≈ 1.51 µM) | 0.125 µg/mL (≈ 0.189 µM) | 0.25 µg/mL (≈ 0.377 µM) |
| CO[C@@H]1[C@@H](NC(=O)c2ccc(C)[nH]2)[C@@H](O)[C@H](Oc2ccc3c(O)c(NC(=O)c4ccc(O)c(CC=C(C)C)c4)c(=O)oc3c2C)OC1(C)C | 32 µg/mL (≈ 47.4 µM) | 64 µg/mL (≈ 94.7 µM) | 2 µg/mL (≈ 2.96 µM) | 2 µg/mL (≈ 2.96 µM) |
| C=Cc1cc(C(=O)Nc2c(O)c3ccc(O[C@@H]4OC(C)(C)[C@H](OC)[C@@H](OC(=O)c5ccc(C)[nH]5)[C@H]4O)c(C)c3oc2=O)ccn1 | 0.5 µg/mL (≈ 0.807 µM) | 0.5 µg/mL (≈ 0.807 µM) | 0.5 µg/mL (≈ 0.807 µM) | 1 µg/mL (≈ 1.61 µM) |
| CO[C@@H]1[C@H](NC(=O)c2ccc(C)[nH]2)[C@@H](O)[C@H](Oc2ccc3c(O)c(NC(=O)c4ccc(O)c(CC=C(C)C)c4)c(=O)oc3c2C)OC1(C)C | 64 µg/mL (≈ 94.7 µM) | > 64 µg/mL | > 128 µg/mL | > 128 µg/mL |
| CO[C@@H]1[C@@H](OC(=O)NOCC(C)C)[C@@H](O)[C@H](Oc2ccc3c(O)c(NC(=O)c4ccc(O)c(CC=C(C)C)c4)c(=O)oc3c2C)OC1(C)C | 4 µg/mL (≈ 5.84 µM) | 16 µg/mL (≈ 23.4 µM) | 0.5 µg/mL (≈ 0.73 µM) | 1 µg/mL (≈ 1.46 µM) |
| CO[C@@H]1[C@@H](OC(=O)c2[nH]c(C)cc2C)[C@@H](O)[C@H](Oc2ccc3c(O)c(NC(=O)c4ccc(O)c(CC=C(C)C)c4)c(=O)oc3c2C)OC1(C)C | 0.25 µg/mL (≈ 0.362 µM) | 0.25 µg/mL (≈ 0.362 µM) | 0.063 µg/mL (≈ 0.0912 µM) | 0.125 µg/mL (≈ 0.181 µM) |
| CO[C@@H]1[C@@H](OC(=O)c2ccc(C)[nH]2)[C@@H](O)[C@H](Oc2ccc3c(O)c(NC(=O)c4ccnc(Oc5cccnc5)c4)c(=O)oc3c2C)OC1(C)C | 0.5 µg/mL (≈ 0.728 µM) | 1 µg/mL (≈ 1.46 µM) | 0.5 µg/mL (≈ 0.728 µM) | 1 µg/mL (≈ 1.46 µM) |
| CCc1cc(C(=O)Nc2c(O)c3ccc(O[C@@H]4OC(C)(C)[C@H](OC)[C@@H](OC(=O)c5ccc(C)[nH]5)[C@H]4O)c(C)c3oc2=O)ccn1 | 0.5 µg/mL (≈ 0.804 µM) | 1 µg/mL (≈ 1.61 µM) | 0.5 µg/mL (≈ 0.804 µM) | 1 µg/mL (≈ 1.61 µM) |
| CO[C@@H]1[C@@H](OC(=O)c2ccc(C)[nH]2)[C@@H](O)[C@H](Oc2ccc3c(O)c(NC(=O)c4ccncc4)c(=O)oc3c2C)OC1(C)C | 1 µg/mL (≈ 1.68 µM) | 1 µg/mL (≈ 1.68 µM) | 4 µg/mL (≈ 6.74 µM) | 8 µg/mL (≈ 13.5 µM) |
| C#CCCNC(=O)O[C@H]1[C@@H](O)[C@H](Oc2ccc3c(O)c(NC(=O)c4ccc(O)c(CC=C(C)C)c4)c(=O)oc3c2C)OC(C)(C)[C@@H]1OC | 16 µg/mL (≈ 24.1 µM) | 32 µg/mL (≈ 48.1 µM) | 0.5 µg/mL (≈ 0.752 µM) | 0.5 µg/mL (≈ 0.752 µM) |
